# Measured values: patent publication US20120196853A1, “Novel Quinoline-Hepcidine Antagonists” (VIFOR (INTERNATIONAL) AG, priority 2009, published 2012)
# Target: T1, human ferroportin (Fpn-HaloTag fusion protein) (Homo sapiens, UniProt Q9NP59)
# T1 construct: expressed in transfected cells
# T1 sequence (Q9NP59 1-571): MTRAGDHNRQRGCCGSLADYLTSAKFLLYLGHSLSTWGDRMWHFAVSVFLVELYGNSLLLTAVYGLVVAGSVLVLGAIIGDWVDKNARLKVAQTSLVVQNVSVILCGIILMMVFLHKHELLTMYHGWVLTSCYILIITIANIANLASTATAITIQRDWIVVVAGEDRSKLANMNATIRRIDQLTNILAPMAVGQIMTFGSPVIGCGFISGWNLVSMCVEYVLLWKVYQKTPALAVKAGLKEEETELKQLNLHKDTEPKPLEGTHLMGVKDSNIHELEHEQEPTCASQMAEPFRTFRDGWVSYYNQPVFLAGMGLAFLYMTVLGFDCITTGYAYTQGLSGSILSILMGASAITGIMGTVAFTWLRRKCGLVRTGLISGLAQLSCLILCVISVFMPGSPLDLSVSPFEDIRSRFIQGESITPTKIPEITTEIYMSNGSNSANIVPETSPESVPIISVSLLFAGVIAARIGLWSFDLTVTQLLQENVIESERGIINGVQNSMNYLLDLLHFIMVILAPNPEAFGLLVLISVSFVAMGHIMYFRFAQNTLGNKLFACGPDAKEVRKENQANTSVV
# Test: ferroportin internalization assay (inhibition of hepcidin-induced internalization of Fpn, MDCK-FPN-HaloTag cells)
# Assay type: cell-based
# Settings: 100 nM hepcidin, overnight, dilution series 0.04 to 40 μM
# Experimental: The hepcidin-antagonistic action of the quinoline compounds of the present invention was determined by means of the “ferroportin internalization assay” described in the following.
# Organic compounds of low molecular weight which counteract the biological actions of hepcidin on its receptor, the iron exporter ferroportin (Fpn), were identified on the basis of their ability to inhibit hepcidin-induced internalization of Fpn in living cells. For this purpose, a stable cell line (Madin-Darby canine kidney, MDCK) was produced which constitutively expresses human ferroportin fused recombinantly at its C terminus with a fluorescent reporter protein (HaloTag®, Promega Corp.). The internalization of Fpn was monitored by labelling these cells with fluorescent ligands (HaloTag®-TMR, tetramethylrhodamine) which join covalently on to the HaloTag reporter gene fused with the Fpn. […] Optimized image analysis algorithms were used to ascertain the cell surface and to quantify the corresponding membrane fluorescence associated with the Fpn-HaloTag fusion protein. This assay allows a quantitative image-based analysis in order to quickly evaluate compounds which can block hepcidin-induced internalization of Fpn. This assay is a direct in vitro pendant of the in vivo action mechanism proposed for medicament candidates and is therefore suitable as an initial assay with a high throughput for identifying compounds which counteract the action of hepcidin on its receptor ferroportin.
# • 7,500 cells per well (MDCK-FPN-HaloTag) were transinoculated in 50 μl DMEM medium (Dulbeccos modified Eagle medium with 10% foetal bovine serum (FBS), which contained 1% penicillin, 1% streptomycin and 450 μg/ml of G-418) in microtitre plates with 384 wells, (384 Cell carrier plates, Perkin Elmer, cat. no. 6007430), followed by incubation overnight at 37° C./5% CO2. • The volume of the medium was reduced to 10 μl, and 10 μl of 5 μM HaloTag-TMR ligands (Promega, cat. no. G 8251) were added in DMEM medium in order to stain the Fpn-HaloTag fusion protein. • 15 min incubation at 37° C./5% CO2 • The HaloTag-TMR ligand was removed and the cells were washed with fresh DMEM medium and the volume was reduced to 20 μl of DMEM medium. • 3 μl per well of a solution of the test compound (dissolved DMSO) were added ([…]). • 7 μl of […] hepcidin (Peptides International, cat. no. PLP-4392-s, 100 μM stock solution diluted in water in DMEM medium) were added per well up to a final hepcidin concentration of 100 nM. • The cells were incubated overnight at 37° C./5% CO2. • The cells were fixed by adding paraformaldehyde (PFA, Electron Microscopy Sciences, cat. no. 15710-S) directly to the cells up to a final concentration of 4%, followed by incubation at room temperature for 15-20 minutes. • The PFA solution was removed and the cells were washed with PBS (phosphate-buffered saline solution), in each case 30 μl remaining in the plate. • 20 μl of Draq5 (Biostatus, cat. no. DR 51000) were added up to a final concentration of 2.5 μM in order to stain the cell nuclei, and the plates were sealed with a foil plate seal. • The plates were analysed with the Opera Plate Imager (Opera Confocal Plate Imager, Perkin Elmer) with 7 images per well; 440 ms exposure time per image, […] focal point height.
row,Compound,IC50
1,"Oc1c(C(c2ccccn2)N2CCOCC2)ccc2cccnc12 (stereo not drawn) [Example 1, 7-(Morpholin-4-yl-pyridin-2-yl-methyl)-quinolin-8-ol]",< 50 µM
2,"Oc1c(C(c2ccccn2)N2CCN(Cc3ccccc3)CC2)ccc2cccnc12 (stereo not drawn) [Example 34, 7-[(4-Benzyl-piperazin-1-yl)-pyridin-2-yl-methyl]quinolin-8-ol]",< 50 µM
3,"N#Cc1ccc(C(c2ccc3cccnc3c2O)N2CCOCC2)cc1 (stereo not drawn) [Example 10, 4-[(8-Hydroxy-quinolin-7-yl)-morpholin-4-yl-methyl]-benzonitrile]",< 50 µM
4,"Oc1c(CN2CCOCC2)cc(CN2CCOCC2)c2cccnc12 [Example 38, 5,7-Bis-morpholin-4-ylmethyl-quinolin-8-ol]",> 100 µM
5,"Oc1c(C(c2ccccn2)N2CCCCC2)cc(Cl)c2cccnc12 (stereo not drawn) [Example 32, 5-Chloro-7-(piperidin-1-yl-pyridin-2-yl-methyl)-quinolin-8-ol]",< 50 µM
6,"O=C(Oc1c(CN2CCOCC2)cc(Cl)c2cccnc12)c1ccccc1 [Example 5, Benzoic acid 5-chloro-7-morpholin-4-ylmethyl-quinolin-8-yl ester]",< 50 µM
7,"NC(=O)c1ccc(C(c2ccc3cccnc3c2O)N2CCOCC2)cc1 (stereo not drawn) [Example 24, 4-[(8-Hydroxy-quinolin-7-yl)-morpholin-4-yl-methyl]-benzamide]",< 50 µM
8,Oc1c(C(c2nccn2Cc2ccccc2)N2CCOCC2)ccc2cccnc12 (stereo not drawn) [Example 16],< 50 µM
9,"Oc1c(C(c2ccc(Cl)cc2)N2CCOCC2)ccc2cccnc12 (stereo not drawn) [Example 40, 7-[(4-Chloro-phenyl)-morpholin-4-yl-methyl]-quinolin-8-ol]",< 50 µM
10,"Oc1c(C(NCc2ccccc2)c2ccncc2)ccc2cccnc12 (stereo not drawn) [Example 17, 7-(Benzylamino-pyridin-4-yl-methyl)-quinolin-8-ol]",< 50 µM
11,"Oc1c(C(c2cnccn2)N2CCOCC2)ccc2cccnc12 (stereo not drawn) [Example 15, 7-(Morpholin-4-yl-pyrazin-2-yl-methyl)-quinolin-8-ol]",< 50 µM
12,"COc1cc(C(=O)Oc2c(CN3CCOCC3)cc(Cl)c3cccnc23)cc(OC)c1OC [Example 4, 3,4,5-Trimethoxy-benzoic acid 5-chloro-7-morpholin-4-ylmethyl-quinolin-8-yl ester]",< 50 µM
13,"COc1ccc(C(c2ccc3cccnc3c2O)N2CCOCC2)cn1 (stereo not drawn) [Example 11, 7-[(6-Methoxy-pyridin-3-yl)-morpholin-4-yl-methyl]-quinolin-8-ol]",< 50 µM
14,CC1CN(C(c2ccccn2)c2cc(Cl)c3cccnc3c2O)CC(C)O1 (stereo not drawn) [Example 33],< 50 µM
15,Oc1c(C(c2ccc(F)cc2)N2CCOCC2)ccc2cccnc12 (stereo not drawn) [Example 28],< 50 µM
16,"Oc1c(C(c2cccnc2)N2CCOCC2)ccc2cccnc12 (stereo not drawn) [Example 29, 7-(Morpholin-4-yl-pyridin-3-yl-methyl)-quinolin-8-ol]",< 50 µM
17,"COc1ccccc1C(c1ccc2cccnc2c1O)N1CCOCC1 (stereo not drawn) [Example 14, 7-[(2-Methoxy-phenyl)-morpholin-4-yl-methyl]-quinolin-8-ol]",< 50 µM
18,"Oc1c(C(c2ccccc2Cl)N2CCOCC2)ccc2cccnc12 (stereo not drawn) [Example 13, 7-[(2-Chloro-phenyl)-morpholin-4-yl-methyl]-quinolin-8-ol]",< 50 µM
19,"Oc1c(C(c2cccs2)N2CCOCC2)ccc2cccnc12 (stereo not drawn) [Example 21, 7-(Morpholin-4-yl-thiophen-2-yl-methyl)-quinolin-8-ol]",< 50 µM

row,Compound,IC50
1,"CCOC(=O)N1CCN(C(c2ccccn2)c2ccc3cccnc3c2O)CC1 (stereo not drawn) [Example 26, 4-[(8-Hydroxy-quinolin-7-yl)-pyridin-2-yl-methyl]-piperazine-1-carboxylic acid ethyl ester]",< 50 µM
2,"Oc1c(C(c2ccccn2)N2CCC(Cc3ccccc3)CC2)ccc2cccnc12 (stereo not drawn) [Example 7, 7-[(4-Benzyl-piperidin-1-yl)-pyridin-2-yl-methyl]-quinolin-8-ol]",< 50 µM
3,"Oc1c(C(c2ccncc2)N2CCOCC2)ccc2cccnc12 (stereo not drawn) [Example 30, 7-(Morpholin-4-yl-pyridin-4-yl-methyl)-quinolin-8-ol]",< 50 µM
4,"Oc1c(C(c2ccccn2)N2CCN(c3ccccn3)CC2)ccc2cccnc12 (stereo not drawn) [Example 37, 7-[Pyridin-2-yl-(4-pyridin-2-yl-piperazin-1-yl)-methyl]-quinolin-8-ol]",< 50 µM
5,"Oc1c(CN2CCOCC2)ccc2cccnc12 [Example 22, 7-Morpholin-4-yl-methyl-quinolin-8-ol]",< 50 µM
6,OCCN1CCN(C(c2ccccn2)c2ccc3cccnc3c2O)CC1 (stereo not drawn) [Example 8],< 50 µM
7,"Oc1c(C(c2ccc(Cl)cc2)N2CCOCC2)cc(Cl)c2cccnc12 (stereo not drawn) [Example 2, 5-Chloro-7-[(4-chloro-phenyl)-morpholin-4-yl-methyl]-quinolin-8-ol]",< 50 µM
8,"Oc1c(C(c2cccs2)N2CCOCC2)cc(Cl)c2cccnc12 (stereo not drawn) [Example 39, 5-Chloro-7-(morpholin-4-yl-thiophen-2-yl-methyl)-quinolin-8-ol]",< 50 µM
9,"Oc1c(C(c2ccccn2)N2CCCCC2)ccc2cccnc12 (stereo not drawn) [Example 27, 7-(Piperidin-1-yl-pyridin-2-yl-methyl)-quinolin-8-ol]",< 50 µM
10,"CN(Cc1ccccc1)C(c1ccncc1)c1ccc2cccnc2c1O (stereo not drawn) [Example 19, 7-[(Benzyl-methyl-amino)-pyridin-4-yl-methyl]-quinolin-8-ol]",< 50 µM
11,"COc1ccc(C(c2ccc3cccnc3c2O)N2CCOCC2)cc1 (stereo not drawn) [Example 41, 7-[(4-Methoxy-phenyl)-morpholin-4-yl-methyl]-quinolin-8-ol]",< 50 µM
12,"Oc1c(C(Nc2ccccn2)c2cccnc2)cc(Cl)c2cccnc12 (stereo not drawn) [Example 6, 5-Chloro-7-[pyridin-3-yl-(pyridin-2-ylamino)-methyl]-quinolin-8-ol]",< 50 µM
13,"CN1CCN(C(c2ccccn2)c2ccc3cccnc3c2O)CC1 (stereo not drawn) [Example 35, 7-[(4-Methyl-piperazin-1-yl)-pyridin-2-yl-methyl]-quinolin-8-ol]",< 50 µM
14,"Cc1ccccc1C(c1ccc2cccnc2c1O)N1CCOCC1 (stereo not drawn) [Example 12, 7-(Morpholin-4-yl-o-tolyl-methyl)-quinolin-8-ol]",< 50 µM
15,"CC1CN(C(c2ccncc2)c2ccc3cccnc3c2O)CC(C)O1 (stereo not drawn) [Example 18, 7-[(2,6-Dimethyl-morpholin-4-yl)-pyridin-4-yl-methyl]-quinolin-8-ol]",< 50 µM
16,"Oc1c(CN2CCOCC2)cc(Cl)c2cccnc12 [Example 31, 5-Chloro-7-morpholin-4-ylmethyl-quinolin-8-ol]",< 50 µM
17,"COc1cc(COc2c(CN3CCOCC3)ccc3cccnc23)cc(OC)c1OC [Example 23, 7-Morpholin-4-ylmethyl-8-(3,4,5-trimethoxybenzyloxy)-quinoline]",> 100 µM
18,"CC1CN(C(c2ccc(F)cc2)c2ccc3cccnc3c2O)CC(C)O1 (stereo not drawn) [Example 20, 7-[(2,6-Dimethyl-morpholin-4-yl)-(4-fluoro-phenyl)-methyl]-quinolin-8-ol]",< 50 µM

# Same assay, conditions: 10 μM substance conc., hepcidin-induced Fpn internalization
row,Compound,I [%] (median inhibition [%] at 10 μM substance conc.)
1,"Oc1c(C(c2ccccn2)N2CCOCC2)ccc2cccnc12 (stereo not drawn) [Example 1, 7-(Morpholin-4-yl-pyridin-2-yl-methyl)-quinolin-8-ol]",>50%
2,"O=C(Oc1c(CN2CCOCC2)cc(Cl)c2cccnc12)c1ccccc1 [Example 5, Benzoic acid 5-chloro-7-morpholin-4-ylmethyl-quinolin-8-yl ester]",<50%
3,"COc1cc(C(=O)Oc2c(CN3CCOCC3)cc(Cl)c3cccnc23)cc(OC)c1OC [Example 4, 3,4,5-Trimethoxy-benzoic acid 5-chloro-7-morpholin-4-ylmethyl-quinolin-8-yl ester]",<50%
4,"Oc1c(C(c2ccc(Cl)cc2)N2CCOCC2)cc(Cl)c2cccnc12 (stereo not drawn) [Example 2, 5-Chloro-7-[(4-chloro-phenyl)-morpholin-4-yl-methyl]-quinolin-8-ol]",<50%
5,"Oc1c(C(Nc2ccccn2)c2cccnc2)cc(Cl)c2cccnc12 (stereo not drawn) [Example 6, 5-Chloro-7-[pyridin-3-yl-(pyridin-2-ylamino)-methyl]-quinolin-8-ol]",<50%
